Results taken from ChEMBL document CHEMBL4732221, “Design, synthesis and bioactivity evaluation of novel pyrazole linked phenylthiazole derivatives in context of antibacterial activity” (Bioorg Med Chem Lett, 2021).
Values after ≈ are worked out from the molar mass of the structure shown. Active and inactive are the calls of the source. The calls are words filed in the database; no cut-off is given here.

Assays:
[1] = Inhibition of Escherichia coli DNA topoisomerase 4 assessed as reduction in decatenation of kinetoplast DNA measured after 1 hr by agarose gel electrophoresis method
[2] = tested on: Enterococcus faecalis; assay: Antibacterial activity against vancomycin resistant Enterococcus faecalis assessed as reduction in bacterial growth by CLSI based broth microdilution method; assay type: functional; details: time 18 hrs
[3] = tested on: Staphylococcus aureus; assay: Antibacterial activity against methicillin-resistant Staphylococcus aureus assessed as reduction in bacterial growth by CLSI based broth microdilution method; assay type: functional; details: time 18 hrs
[4] = tested on: Escherichia coli; assay: Antibacterial activity against Escherichia coli assessed as reduction in bacterial growth by CLSI based broth microdilution method; assay type: functional; details: time 18 hrs
[5] = tested on: Streptococcus pneumoniae; assay: Antibacterial activity against Streptococcus pneumoniae assessed as reduction in bacterial growth by CLSI based broth microdilution method; assay type: functional; details: time 18 hrs
[6] = (§1) Haemolytic activity against human whole blood after 70 mins by monochromator plate reader; assay type: ADME, tissue-based; details: whole blood
[7] = tested on: Blood; assay: as §1; assay type: ADME, tissue-based; details: blood, 1.167 h
[8] = tested on: Staphylococcus aureus; assay: Antibacterial activity against methicillin-resistant Staphylococcus aureus ATCC 43300 assessed as growth inhibition after 18 hrs by monochromator plate assay; assay type: functional
[9] = tested on: Candida albicans; assay: Antifungal activity against Candida albicans ATCC 90028 assessed as growth inhibition at 32 ug/ml after 36 hrs by monochromator plate assay relative to control; assay type: functional
[10] = tested on: Staphylococcus aureus; assay: Antibacterial activity against methicillin-resistant Staphylococcus aureus ATCC 43300 assessed as growth inhibition at 32 ug/ml after 18 hrs by monochromator plate assay relative to control; assay type: functional
[11] = Cytotoxicity against HEK293 cells assessed as cell viability after 20 hrs by fluorescence assay; assay type: cell-based; details: human
[12] = tested on: Escherichia coli; assay: Antibacterial activity against Escherichia coli ATCC 25922 assessed as growth inhibition after 18 hrs by monochromator plate assay; assay type: functional
[13] = tested on: Acinetobacter baumannii; assay: Antibacterial activity against Acinetobacter baumannii ATCC 19606 assessed as growth inhibition after 18 hrs by monochromator plate assay; assay type: functional
[14] = tested on: Pseudomonas aeruginosa; assay: Antibacterial activity against Pseudomonas aeruginosa ATCC 27853 assessed as growth inhibition at 32 ug/ml after 18 hrs by monochromator plate assay relative to control; assay type: functional
[15] = tested on: Klebsiella pneumoniae; assay: Antibacterial activity against Klebsiella pneumoniae ATCC 700603 assessed as growth inhibition at 32 ug/ml after 18 hrs by microplate reader assay relative to control; assay type: functional
[16] = tested on: Candida albicans; assay: Antifungal activity against Candida albicans ATCC 90028 assessed as growth inhibition after 36 hrs by monochromator plate assay; assay type: functional
[17] = tested on: Cryptococcus neoformans; assay: Antifungal activity against Cryptococcus neoformans var. grubii ATCC 208821 assessed as growth inhibition at 32 ug/ml after 36 hrs by monochromator plate assay relative to control; assay type: functional; details: dose 32.0 µg/ml
[18] = tested on: Klebsiella pneumoniae; assay: Antibacterial activity against Klebsiella pneumoniae ATCC 700603 assessed as growth inhibition after 18 hrs by monochromator plate assay; assay type: functional
[19] = tested on: Acinetobacter baumannii; assay: Antibacterial activity against Acinetobacter baumannii ATCC 19606 assessed as growth inhibition at 32 ug/ml after 18 hrs by monochromator plate assay relative to control; assay type: functional; details: for inhibition: dose 32.0 µg/ml
[20] = tested on: Escherichia coli; assay: Antibacterial activity against Escherichia coli ATCC 25922 assessed as growth inhibition at 32 ug/ml after 18 hrs by monochromator plate assay relative to control; assay type: functional; details: dose 32.0 µg/ml
[21] = tested on: Pseudomonas aeruginosa; assay: Antibacterial activity against Pseudomonas aeruginosa ATCC 27853 assessed as growth inhibition after 18 hrs by monochromator plate assay; assay type: functional
[22] = tested on: Cryptococcus neoformans; assay: Antifungal activity against Cryptococcus neoformans var. grubii ATCC 208821) assessed as growth inhibition after 36 hrs by monochromator plate assay relative to control; assay type: functional

SMILES	MIC [8]	inhibition at 32 µg/mL [9]	inhibition at 32 µg/mL [10]	MIC [12]	MIC [13]	inhibition at 32 µg/mL [14]	inhibition at 32 µg/mL [15]	MIC [16]	inhibition [17]	MIC [18]	inhibition at 32 µg/mL [19]	inhibition [20]	MIC [21]	MIC [22]	further results
c1ccc(COc2ccc(-c3cc(C4CCNCC4)[nH]n3)cc2)cc1															IC50 [1]: 128 mg/L (≈ 384 µM); MIC [2]: 64 mg/L (≈ 192 µM); MIC [3]: 64 mg/L (≈ 192 µM)
Clc1cccc(-n2nc(C3CCNCC3)cc2/C=C/c2c[nH]c3ccc(Cl)cc23)c1															MIC [2]: 2 mg/L (≈ 4.57 µM); MIC [4]: 16 mg/L (≈ 36.6 µM); MIC [3]: 2 mg/L (≈ 4.57 µM); MIC [5]: 2 mg/L (≈ 4.57 µM)
CC[C@H](C)[C@H](NC(=O)CN)C(=O)NCC(=O)N[C@@H](C)C(=O)N[C@H](C(=O)N[C@@H](CC(C)C)C(=O)N[C@@H](CCCCN)C(=O)N[C@H](C(=O)N[C@@H](CC(C)C)C(=O)N[C@H](C(=O)N[C@H](C(=O)NCC(=O)N[C@@H](CC(C)C)C(=O)N1CCC[C@H]1C(=O)N[C@@H](C)C(=O)N[C@@H](CC(C)C)C(=O)N[C@H](C(=O)N[C@@H](CO)C(=O)N[C@@H](Cc1c[nH]c2ccccc12)C(=O)N[C@H](C(=O)N[C@@H](CCCCN)C(=O)N[C@@H](CCCNC(=N)N)C(=O)N[C@@H](CCCCN)C(=O)N[C@@H](CCCNC(=N)N)C(=O)N[C@@H](CCC(N)=O)C(=O)N[C@@H](CCC(N)=O)C(N)=O)[C@@H](C)CC)[C@@H](C)CC)[C@@H](C)O)[C@@H](C)O)C(C)C)C(C)C [MELITTIN]															HC50 at 1.167 h [6]: 8.5 µg/mL; HC10 [7]: 2.7 µg/mL
Cc1nc(-c2ccc(-c3ccccc3)cc2)sc1-c1cc(C(=O)Nc2ccccc2)n[nH]1	4 mg/L (≈ 9.16 µM)	9.6%	85.1%	inactive	> 32 mg/L	16.6%	9.9%	> 32 mg/L	inactive	> 32 mg/L	1.6%	inactive	> 32 mg/L	inactive	CC50 at 20 h [11]: > 32 mg/L; HC50 at 1.167 h [6]: > 32 µg/mL; HC10 [7]: > 32 µg/mL
Cc1ccc(-c2ccc(-c3nc(C)c(-c4cc(C(=O)NC5CCCCC5)n[nH]4)s3)cc2)cc1	> 32 mg/L	18.9%	23.8%	inactive	> 32 mg/L	16.5%	12.2%	> 32 mg/L	inactive	> 32 mg/L	4.3%	inactive	> 32 mg/L	inactive	
Cc1nc(-c2ccc(-c3ccccc3)cc2)sc1-c1cc(C(=O)NNc2ccccc2)n[nH]1	> 32 mg/L	17.8%	8.2%	inactive	> 32 mg/L			> 32 mg/L	inactive	inactive	5.5%	inactive	inactive	inactive	inhibition ([14]; dose 32.0 µg/ml): inactive; inhibition ([15]; dose 32.0 µg/ml): inactive
Cc1nc(-c2ccc(I)cc2)sc1-c1cc(C(=O)Nc2ccccc2)n[nH]1	> 32 mg/L	4.6%	19%	inactive	inactive	11.1%	4.7%	> 32 mg/L	inactive	> 32 mg/L		inactive	> 32 mg/L	inactive	inhibition [19]: inactive
Cc1nc(-c2ccc(-c3ccccc3)cc2)sc1-c1cc(C(=O)Nc2cccc3ccccc23)n[nH]1	> 32 mg/L	5.1%	14.2%	inactive	> 32 mg/L	8.2%	8.9%	> 32 mg/L	inactive	> 32 mg/L	0.9%	inactive	> 32 mg/L	inactive	
Cc1ccc(NC(=O)c2cc(-c3sc(-c4ccc(-c5ccccc5)cc4)nc3C)[nH]n2)cc1C	> 32 mg/L	10.1%	10.8%	inactive	inactive	2.2%	3.5%	> 32 mg/L	inactive	> 32 mg/L		inactive	> 32 mg/L	inactive	inhibition [19]: inactive
Cc1nc(-c2ccc(-c3ccccc3)cc2)sc1-c1cc(C(=O)Nc2ccc(F)cc2)n[nH]1	> 32 mg/L	19.6%	15.1%	inactive	> 32 mg/L	5.1%	4.4%	> 32 mg/L	inactive	> 32 mg/L	3%	inactive	> 32 mg/L	inactive	
